Like-named read-outs stand apart in the source and are kept apart here.
Assays:
aphids, Myzus persicae = test: Potter tower spray on aphids, knockdown and mortality; format: in vivo; settings: Myzus persicae, Aphids, read-out: Average of % corrected affected; for pest or weed control at 0.00625 % strength: 0.00625 % w/v; for pest or weed control at 0.0125 % strength: 0.0125 % w/v; for pest or weed control at 0.025 % strength: 0.025 % w/v; for pest or weed control at 0.05 % strength: 0.05 % w/v; for pest or weed control at 0.1 % strength: 0.1 % w/v
From the text: The compounds were screened for insecticidal efficacy against aphids, Myzus persicae, Cabbage moth, Mamestra brassicae, diamond black moths, Plutella xylostella, red spider mites, Tetranychus urticae, whitefly, Trialeurodes vaporariorum, in terms of knockdown and mortality.
(§1) Myzus persicae, Cabbage moth, Mamestra brassicae, diamond back moths, Plutella xylostella, red spider mites, Tetranychus urticae, whitefly, Trialeurodes vaporariorum, were obtained from specified laboratory cultures. Mixed sex and age aphids and mites, moth larvae and whitefly scale infested leaves were used in the experiments. Environmental conditions were closely monitored and recorded and were within the optimal range of the target species.
(§2) The compounds were screened at a range of five concentrations, diluted in DMSO. Some of the compounds were screened against aphids, whitefly and red spider mites and other compounds were screened against cabbage moth, and diamond black moths. A carrier only and an untreated control will also be conducted. Treatments were applied directly onto the insects within Petri dishes, using a potter tower.
(§3) Twenty mites and ten aphids, scales and moth larvae were placed within a Petri dish, lined with a suitable leaf disc on a damp cotton wool pad. Scales were already on leaves. The Petri dishes were then sprayed using a potter tower. The number of knocked down and anthropods were assessed at 24 and 48 hours post treatment. Five replicates were be performed for each treatment, for each species.
(§4) For Tables 2, 4, 5 and 6, the compounds were diluted in DMSO containing 1% v/v Tween 20™. For Tables 2, 4, 5 and 6, the caterpillars were a mixture of Mamestra brassicae and Lacanobia oleracea.

[1] = system: caterpillars, a mixture of Mamestra brassicae and Lacanobia oleracea; test: Potter tower spray on caterpillars, knockdown and mortality; format: in vivo; settings: Caterpillars, read-out: Average of % corrected affected; for pest or weed control at 0.00625 % strength: 0.00625 % w/v; for pest or weed control at 0.0125 % strength: 0.0125 % w/v; for pest or weed control at 0.025 % strength: 0.025 % w/v; for pest or weed control at 0.05 % strength: 0.05 % w/v; for pest or weed control at 0.1 % strength: 0.1 % w/v
From the text: as §1, §2, §3, §4

[2] = 24 h, 24 hours post application
[3] = 48 h, 48 hours post application

| Compound | pest or weed control at 0.00625 % strength (aphids, Myzus persicae; [2]) [%] | pest or weed control at 0.0125 % strength (aphids, Myzus persicae; [2]) [%] | pest or weed control at 0.025 % strength (aphids, Myzus persicae; [2]) [%] | pest or weed control at 0.05 % strength (aphids, Myzus persicae; [2]) [%] | pest or weed control at 0.1 % strength (aphids, Myzus persicae; [2]) [%] | pest or weed control at 0.00625 % strength (aphids, Myzus persicae; [3]) [%] | pest or weed control at 0.0125 % strength (aphids, Myzus persicae; [3]) [%] | pest or weed control at 0.025 % strength (aphids, Myzus persicae; [3]) [%] | pest or weed control at 0.05 % strength (aphids, Myzus persicae; [3]) [%] | pest or weed control at 0.1 % strength (aphids, Myzus persicae; [3]) [%] | pest or weed control at 0.00625 % strength [1, 2] [%] | pest or weed control at 0.0125 % strength [1, 2] [%] | pest or weed control at 0.025 % strength [1, 2] [%] | pest or weed control at 0.05 % strength [1, 2] [%] | pest or weed control at 0.1 % strength [1, 2] [%] | pest or weed control at 0.00625 % strength [1, 3] [%] | pest or weed control at 0.0125 % strength [1, 3] [%] | pest or weed control at 0.025 % strength [1, 3] [%] | pest or weed control at 0.05 % strength [1, 3] [%] | pest or weed control at 0.1 % strength [1, 3] [%] |
| --- | --- | --- | --- | --- | --- | --- | --- | --- | --- | --- | --- | --- | --- | --- | --- | --- | --- | --- | --- | --- |
| COC(CN(Cc1ccc(Cl)nc1)C1=CC(=O)OC1)OC [Compound 5, 3-[(6-Chloro-3-pyridyl)methyl-(2,2-dimethoxyethyl)amino]-2H-furan-5-one] | 1 to 19 | 1 to 19 | 1 to 19 | 20 to 39 | 1 to 19 | 1 to 19 | 1 to 19 | 1 to 19 | 20 to 39 | 1 to 19 | 1 to 19 | 1 to 19 | 1 to 19 | 1 to 19 | 1 to 19 | 1 to 19 | 1 to 19 | 1 to 19 | 1 to 19 | 20 to 39 |
| N#CCN(Cc1ccc(Cl)nc1)C1=CC(=O)OC1 [Compound 7, 2-[(6-Chloro-3-pyridyl)methyl-(5-oxo-2H-furan-3-yl)amino]acetonitrile] | 1 to 19 | 20 to 39 | 20 to 39 | 40 to 59 | 1 to 19 | 40 to 59 | 40 to 59 | 40 to 59 | 40 to 59 | 1 to 19 | 1 to 19 | 1 to 19 | 1 to 19 | 0 | 1 to 19 | 1 to 19 | 0 | 1 to 19 | 0 | 1 to 19 |

Source: US20160212997A1, “AGRICULTURAL CHEMICALS” (REDAG CROP PROTECTION LTD, priority 2013, published 2016)
